The values below come from US9359358B2, “Cyclohexyl azetidine derivatives as JAK inhibitors” (Incyte Holdings Corporation, priority 2011, dated 2016).

One test has as its target T1, human JAK2 (Homo sapiens, UniProt O60674).
T1 construct: JAK2 (a.a. 828-1132); His tag (N); made in house; host or cells: insect cells (baculovirus)
The test is described as follows: In Vitro JAK Kinase Assay (HTRF, phosphorylation of a biotinylated peptide), JAK2. Conditions: Table 4; assay of Example A. It is filed as biochemical. Here is the method: (§1) The catalytic activity of JAK1, JAK2 or JAK3 was assayed by measuring the phosphorylation of a biotinylated peptide. The phosphorylated peptide was detected by homogenous time resolved fluorescence (HTRF). […] Reactions were carried out at room temperature for 1 hour and then stopped with 20 μL 45 mM EDTA, 300 nM SA-APC, 6 nM Eu-Py20 in assay buffer (Perkin Elmer, Boston, Mass.). Binding to the Europium labeled antibody took place for 40 minutes and HTRF signal was measured on a Fusion plate reader (Perkin Elmer, Boston, Mass.).

The target in the next test is T2, human JAK1 (Homo sapiens, UniProt P23458).
T2 construct: human JAK1 (a.a. 837-1142); His tag (N); made in house; host or cells: insect cells (baculovirus)
The experiment in a line: In Vitro JAK Kinase Assay (HTRF, phosphorylation of a biotinylated peptide), JAK1. The class given is biochemical. The settings on record: Table 4; catalytic domain a.a. 837-1142, assay of Example A. Here is the method:
as §1

Structures are written as SMILES.

T2 sequence (P23458 849-1154): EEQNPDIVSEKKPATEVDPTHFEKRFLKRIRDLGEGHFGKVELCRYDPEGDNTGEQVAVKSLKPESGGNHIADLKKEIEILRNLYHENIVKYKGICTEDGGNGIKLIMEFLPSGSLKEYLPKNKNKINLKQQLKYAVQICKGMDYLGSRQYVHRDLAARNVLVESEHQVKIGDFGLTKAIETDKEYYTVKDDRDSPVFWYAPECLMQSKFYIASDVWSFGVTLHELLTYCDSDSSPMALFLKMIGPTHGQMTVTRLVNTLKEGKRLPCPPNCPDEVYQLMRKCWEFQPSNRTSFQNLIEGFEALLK
T1 sequence (O60674 828-1132): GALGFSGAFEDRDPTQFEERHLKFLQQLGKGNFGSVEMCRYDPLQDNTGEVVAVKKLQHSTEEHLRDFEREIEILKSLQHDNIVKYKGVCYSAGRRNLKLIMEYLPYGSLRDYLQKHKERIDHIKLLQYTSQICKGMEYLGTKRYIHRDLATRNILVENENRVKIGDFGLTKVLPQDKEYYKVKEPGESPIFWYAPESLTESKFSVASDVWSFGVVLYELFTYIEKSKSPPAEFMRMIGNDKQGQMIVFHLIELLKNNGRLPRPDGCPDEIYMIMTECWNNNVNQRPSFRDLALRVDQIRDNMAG

As to `CNCc1cc(O[C@H]2CC[C@@H](N3CC(CC#N)(n4cc(-c5ncnc6[nH]ccc56)cn4)C3)CC2)nc(C(F)(F)F)n1` [Example 4, {1-(cis-4-{[6-[(Methylamino)methyl]-2-(trifluoromethyl)pyrimidin-4-yl]oxy}cyclohexyl)-3-[4-(7H-pyrrolo[2,3-d]pyrimidin-4-yl)-1H-pyrazol-1-yl]azetidin-3-yl}acetonitrile tris(trifluoroacetate)], the “JAK2/JAK1 IC50 ratio” value on human JAK2 is “≧10”. For the same molecule, the IC50 at human JAK1 was below 10 nM.
Take `CCNCc1cc(O[C@H]2CC[C@@H](N3CC(CC#N)(n4cc(-c5ncnc6[nH]ccc56)cn4)C3)CC2)nc(C(F)(F)F)n1` [Example 5, {1-(cis-4-{[6-[(Ethylamino)methyl]-2-(trifluoromethyl)pyrimidin-4-yl]oxy}cyclohexyl)-3-[4-(7H-pyrrolo[2,3-d]pyrimidin-4-yl)-1H-pyrazol-1-yl]azetidin-3-yl}acetonitrile tris(trifluoroacetate)]: the “JAK2/JAK1 IC50 ratio” value on human JAK2 is “≧10”. At human JAK1, the IC50 is below 10 nM.
Consider `CC(C)NCc1cc(O[C@H]2CC[C@@H](N3CC(CC#N)(n4cc(-c5ncnc6[nH]ccc56)cn4)C3)CC2)nc(C(F)(F)F)n1.O=C(O)C(F)(F)F.O=C(O)C(F)(F)F.O=C(O)C(F)(F)F` [Example 6, {1-(cis-4-{[6-[(isopropylamino)methyl]-2-(trifluoromethyl)pyrimidin-4-yl]oxy}cyclohexyl)-3-[4-(7H-pyrrolo[2,3-d]pyrimidin-4-yl)-1H-pyrazol-1-yl]azetidin-3-yl}acetonitrile tris(trifluoroacetate)], for which the “JAK2/JAK1 IC50 ratio” value on human JAK2 is “≧10”. The molecule also gave an IC50 against human JAK1 below 10 nM.
The matching figures for `N#CCC1(n2cc(-c3ncnc4[nH]ccc34)cn2)CN([C@H]2CC[C@@H](Oc3cc(CNC4CC4)nc(C(F)(F)F)n3)CC2)C1.O=C(O)C(F)(F)F.O=C(O)C(F)(F)F.O=C(O)C(F)(F)F` [Example 7, {1-(cis-4-{[6-[(cyclopropylamino)methyl]-2-(trifluoromethyl)pyrimidin-4-yl]oxy}cyclohexyl)-3-[4-(7H-pyrrolo[2,3-d]pyrimidin-4-yl)-1H-pyrazol-1-yl]azetidin-3-yl}acetonitrile tris(trifluoroacetate)]: “≧10” and below 10 nM.
As to `CCN(C)Cc1cc(O[C@H]2CC[C@@H](N3CC(CC#N)(n4cc(-c5ncnc6[nH]ccc56)cn4)C3)CC2)nc(C(F)(F)F)n1.O=C(O)C(F)(F)F.O=C(O)C(F)(F)F.O=C(O)C(F)(F)F` [Example 8, {1-(cis-4-{[6-{[ethyl(methyl)amino]methyl}-2-(trifluoromethyl)pyrimidin-4-yl]oxy}cyclohexyl)-3-[4-(7H-pyrrolo[2,3-d]pyrimidin-4-yl)-1H-pyrazol-1-yl]azetidin-3-yl}acetonitrile tris(trifluoroacetate)], the “JAK2/JAK1 IC50 ratio” value at human JAK2 is listed as “≧10”. Also, the half-inhibitory concentration (IC50) against human JAK1 was below 10 nM.
With `N#CCC1(n2cc(-c3ncnc4[nH]ccc34)cn2)CN([C@H]2CC[C@@H](Oc3cc(CNCC4CC4)nc(C(F)(F)F)n3)CC2)C1.O=C(O)C(F)(F)F.O=C(O)C(F)(F)F.O=C(O)C(F)(F)F` [Example 9, {1-(cis-4-{[6-{[(cyclopropylmethyl)amino]methyl}-2-(trifluoromethyl)pyrimidin-4-yl]oxy}cyclohexyl)-3-[4-(7H-pyrrolo[2,3-d]pyrimidin-4-yl)-1H-pyrazol-1-yl]azetidin-3-yl}acetonitrile tris(trifluoroacetate)], on human JAK2, the “JAK2/JAK1 IC50 ratio” value is “≧10”. The same molecule displayed an IC50 against human JAK1 below 10 nM.
In the case of `N#CCC1(n2cc(-c3ncnc4[nH]ccc34)cn2)CN([C@H]2CC[C@@H](Oc3cc(CNC4CCC4)nc(C(F)(F)F)n3)CC2)C1.O=C(O)C(F)(F)F.O=C(O)C(F)(F)F.O=C(O)C(F)(F)F` [Example 10, {1-(cis-4-{[6-[(cyclobutylamino)methyl]-2-(trifluoromethyl)pyrimidin-4-yl]oxy}cyclohexyl)-3-[4-(7H-pyrrolo[2,3-d]pyrimidin-4-yl)-1H-pyrazol-1-yl]azetidin-3-yl}acetonitrile tris(trifluoroacetate)], the “JAK2/JAK1 IC50 ratio” value at human JAK2 is listed as “≧10”. On human JAK1, this molecule came in with an IC50 below 10 nM.
